According to the supplement of paper PMC10307832:

Tests used:
Experiment in all cases: relative viability (nuclei count vs DMSO), 5 days (fraction); higher = more cells survive
[1] = compound: Nc1ccccc1NC(=O)c1ccc(CNC(=O)OCc2cccnc2)cc1 [Entinostat]
Method in brief: (§1)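 Acceptance criteria were a control CV below 25% and at least one doubling per plate. Lung cancer cell lines in 1536-well plates got five library-drug doses (not always all listed) √10 apart by pinning and were left 5 days with no medium change. Viability divides treated-well nuclei by vehicle-well nuclei and is the median across plates. Nuclei were counted by MetaXpress from 4× Hoechst images.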

[2] = compound: CN1CCC(CNc2ccc3ncc(-c4cccc(OC(F)(F)F)c4)n3n2)CC1 [SGI-1776]
Method in brief: as §1

[3] = compound: C1COCCN1C2=NC(=NC3=C2OC4=C3C=CC=N4)C5=CC(=CC=C5)NC(=O)C6=CN=C(C=C6)N
Method in brief: as §1

Cell Line | relative viability ([1]; 0.02 µM) | relative viability ([1]; 0.06325 µM) | relative viability ([1]; 0.2 µM) | relative viability ([1]; 0.6325 µM) | relative viability ([1]; 2 µM) | relative viability ([2]; 0.08 µM) | relative viability ([2]; 0.8 µM) | relative viability ([2]; 2.53 µM) | relative viability ([2]; 8 µM) | relative viability ([3]; 0.02 µM) | relative viability ([3]; 0.06325 µM) | relative viability ([3]; 0.2 µM) | relative viability ([3]; 0.6325 µM) | relative viability ([3]; 2 µM)
NCI-H2009 | 1.02 | 0.974 | 0.969 | 0.796 | 0.644 | 1.08 | 0.992 | 1.05 | 0.858 | 0.979 | 1.09 | 0.971 | 0.94 | 0.846
NCI-H3122 | 1 | 1.03 | 1.02 | 0.959 | 0.677 | 1.03 | 0.99 | 1.04 | 1.05 | 1.03 | 1.01 | 1.01 | 1.05 | 0.862
NCI-H2228 | 0.852 | 1.01 | 0.944 | 0.625 | 0.359 | 0.966 | 1.02 | 0.808 | 0.71 | 0.899 | 1.16 | 1.01 | 0.92 | 0.418
NCI-H1944 | 0.933 | 0.851 | 0.714 | 0.321 | 0.261 | 0.968 | 1.06 | 0.981 | 0.739 | 0.96 | 1.01 | 0.931 | 0.985 | 0.918
NCI-H2342 | 1.07 | 1.08 | 0.907 | 0.908 | 0.73 | 1.1 | 0.927 | 0.914 | 1.07 | 1 | 1.1 | 0.938 | 0.928 | 0.827
NCI-H358 | 1.09 | 1.17 | 0.934 | 0.641 | 0.255 | 0.986 | 0.957 | 0.897 | 0.512 | 0.864 | 1.09 | 0.871 | 0.832 | 0.625
NCI-H1755 | 0.98 | 0.94 | 0.927 | 0.665 | 0.467 | 0.954 | 0.993 | 0.945 | 0.819 | 0.997 | 1.06 | 0.999 | 0.956 | 0.841
A-427 | 1.1 | 1.12 | 0.978 | 0.878 | 0.619 | 1.08 | 1.08 | 0.975 | 0.84 | 0.971 | 0.994 | 0.909 | 0.857 | 0.704
SK-LU-1 | 1.01 | 1.08 | 1.02 | 0.698 | 0.57 | 1.23 | 1.09 | 1.03 | 0.839 | 1.11 | 1.12 | 1.03 | 1.01 | 0.554
NCI-H838 | 1.11 | 1.08 | 1.08 | 0.733 | 0.406 | 0.928 | 0.994 | 0.936 | 0.645 | 0.852 | 0.947 | 0.917 | 0.791 | 0.57
LOU-NH91 | 1.05 | 1.11 | 1 | 0.897 | 0.739 | 1.02 | 1.03 | 0.969 | 0.713 | 0.955 | 1.01 | 0.948 | 0.925 | 0.897
BEN | 0.97 | 1.04 | 0.835 | 0.653 | 0.357 | 0.984 | 0.955 | 0.819 | 0.812 | 1.03 | 0.917 | 1.02 | 0.934 | 0.837
NCI-H2085 | 0.98 | 0.974 | 1 | 0.756 | 0.559 | 0.95 | 1.07 | 1.03 | 0.9 | 0.936 | 1.03 | 1.01 | 0.946 | 0.75
LCLC-103H | 1.03 | 1.06 | 0.942 | 0.721 | 0.454 | 1.02 | 0.998 | 0.964 | 0.924 | 0.913 | 1.06 | 1.07 | 0.978 | 0.815
ABC-1 | 1.01 | 1.05 | 1.15 | 0.808 | 0.398 | 1.02 | 0.916 | 0.835 | 0.897 | 1.09 | 0.879 | 0.83 | 1.1 | 0.927
NCI-H650 | 1.15 | 1.02 | 0.939 | 0.941 | 0.308 | 0.935 | 0.955 | 0.997 | 0.677 | 0.958 | 0.875 | 0.918 | 0.952 | 0.849
NCI-H1792 | 1.16 | 1.1 | 1.02 | 0.649 | 0.451 | 1.01 | 0.984 | 0.859 | 0.662 | 0.953 | 0.965 | 0.893 | 0.655 | 0.393
EPLC-272H | 0.985 | 0.91 | 0.883 | 0.406 | 0.296 | 1.05 | 1.1 | 1.29 | 0.766 | 0.907 | 0.987 | 0.889 | 0.715 | 0.717
NCI-H1563 | 0.938 | 0.959 | 0.887 | 0.816 | 0.776 | 1 | 1.05 | 0.925 | 0.756 | 0.938 | 0.992 | 0.859 | 0.786 | 0.758
EKVX | 1.02 | 1.11 | 0.894 | 0.686 | 0.444 | 1.12 | 1.1 | 0.989 | 0.895 | 1.02 | 1.07 | 0.963 | 1.01 | 0.825
NCI-H1666 | 1.1 | 1.05 | 1.08 | 0.799 | 0.514 | 0.98 | 1.02 | 0.98 | 0.899 | 1.08 | 0.994 | 0.975 | 0.826 | 0.764
HCC-15 | 0.939 | 0.962 | 0.899 | 0.457 | 0.333 | 1.04 | 1.1 | 0.989 | 0.833 | 1.03 | 1.09 | 0.971 | 0.966 | 0.75
LCLC-97TM1 | 1.1 | 1.11 | 1.02 | 0.732 | 0.702 | 1.01 | 1.03 | 1.11 | 1.01 | 1.03 | 0.99 | 0.994 | 1.1 | 0.905
NCI-H2347 | 1.03 | 0.992 | 0.91 | 0.521 | 0.366 | 1.13 | 1.08 | 1.02 | 0.963 | 0.983 | 1.09 | 1.09 | 0.977 | 0.741
